Reference: publication PMC4721062, “Oxadiazole-2-oxides may have other functional targets, in addition to SjTGR, through which they cause mortality in Schistosoma japonicum” (Parasites & Vectors, 2016)
Where two headings read alike, the source gives them in different places.

Assays:
[1] = test system: juvenile S. japonicum in mice; test: Treatment of infected mice at juvenile worm stage; assay type: in vivo, Schistosoma japonicum (ICR mice); details: 10 mg/kg i.p. daily for 5 days from day 7 post-infection
Protocol: (§1) The abdominal skin of each mouse (ICR, female, 22–24 g) was exposed to 20 S. japonica cercariae (as described above). The mice were intraperitoneally injected with 10 mg/kg oxadiazole-2-oxides daily for 5 days, beginning either 7 or 35 days post-infection. Control mice were treated with 10 mg/kg of the carrier medium. All mice were sacrificed 42 days post-infection. The worm burden of each mouse was confirmed by counting the number of worms observed from a portal vein perfusion. The mouse livers were digested overnight with 5 % potassium hydroxyl solution at 37 °C and the eggs in the liver tissue were counted under an inverted phase contrast microscope. The worm and egg reduction rates were calculated using the following formulas: Wormreductionrate%=meannumberofadultwormspermouseincontrolgroup−meannumberofadultwormspermouseinexperimentalgroup/meannumberofadultwormspermouseincontrolgroup. Eggreductionrate%=meannumberofeggspermouseincontrolgroup−meannumberofeggspermouseinexperimentalgroup/meannumberofeggspermouseincontrolgroup.

juvenile S. japonicum = test: microbe, parasite or virus in culture; assay type: cell-based; details: juvenile worms
Protocol: Infected Oncomelania hupensis, provided by the Department of Snail Biology, Jiangsu Institute of Parasitic Diseases, were incubated at 25–28 °C, under illumination, for 2 h to hatch S. japonicum cercariae. The cercariae were collected from the water surface with clean cover glass and placed into a centrifuge tube using pre cooled RPMI 1640. Centrifugation was performed for 1 min at 1500 rpm, and then the steps above were repeated. After centrifugation, the supernatant solution was removed. The cercariae at the bottom were washed twice and resuspended with RPMI 1640. Approximately 20–30 cercariae (1 mL of the resuspension medium) were added to one well in a 24-well culture plate. They were incubated overnight at 37 °C with 5 % CO2. The survival rates and number of tails shed were observed under an inverted microscope. Cercariae that had shed their tails were used as juvenile S. japonicum.
20–30 juvenile worms were transferred into each well of a 24-well culture plate, containing 2 mL RPMI 1640 medium, 20 mM HEPES, 100 IU/mL penicillin, […] streptomycin and 10 % fetal bovine serum. Then, oxadiazole-2-oxides (2, 5, 10, and 50 μM), diluted with the RPMI 1640 medium, were added to their allocated wells. The worms in the negative control wells were treated with equal volumes of RPMI 1640 or DMSO and worms treated with AS were observed as positive controls. The juvenile worms’ survival rates were observed under an inverted phase contrast microscope (Leica, Wetzlar, Germany) at 24, 48 and 72 h. Parasite death was defined as an unclear internal structure of the juvenile worms, with incomplete tegument and contents overflowing radially, or unclear internal structure with complete tegument, but having no motor activity during 1 min of continuous observation. All assays were repeated three times.
^b Data collected by visual examination of worm movement and shape; % D = The number of worms dead / The total number of worms observed, and worms dead judged by unclear internal structure of juvenile worms with uncompleted tegument, and contents overflowing radially, or unclear internal structure with complete tegument, but having no motor activity during 1 min of continuous observation. The data presented are the average of three independent experiments.

recombinant SjTGR = biological target: T1, recombinant SjTGR (Schistosoma japonicum, UniProt B5THG7); test: Inhibition of TrxR activity of recombinant SjTGR (DTNB assay); assay type: biochemical; details: IC50 of SjTGR, 50 nM SjTGR, 1 mM NADPH, 15 min preincubation, DTNB reduction
T1 sequence (B5THG7 1-596): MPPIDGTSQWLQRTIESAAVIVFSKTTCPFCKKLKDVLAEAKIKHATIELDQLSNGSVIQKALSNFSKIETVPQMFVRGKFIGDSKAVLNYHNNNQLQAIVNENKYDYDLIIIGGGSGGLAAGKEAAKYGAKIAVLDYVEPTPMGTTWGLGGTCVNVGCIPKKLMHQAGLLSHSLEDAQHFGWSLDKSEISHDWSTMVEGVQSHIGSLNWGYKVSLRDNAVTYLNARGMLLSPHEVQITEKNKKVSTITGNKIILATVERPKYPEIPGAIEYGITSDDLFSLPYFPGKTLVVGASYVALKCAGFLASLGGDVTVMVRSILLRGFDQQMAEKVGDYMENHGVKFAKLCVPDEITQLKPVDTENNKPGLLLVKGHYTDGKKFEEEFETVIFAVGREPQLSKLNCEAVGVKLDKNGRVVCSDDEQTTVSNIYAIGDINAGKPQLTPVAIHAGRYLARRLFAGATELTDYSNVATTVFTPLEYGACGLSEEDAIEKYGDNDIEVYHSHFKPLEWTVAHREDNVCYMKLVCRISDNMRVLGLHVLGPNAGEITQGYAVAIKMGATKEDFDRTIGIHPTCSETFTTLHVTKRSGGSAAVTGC
Protocol: The purified recombinant SjTGR proteins were produced according to the method described by Song et al.. The inhibition of TrxR activity by the recombinant SjTGR was performed as reported by Rai et al.. Briefly, 50 nM SjTGR and 1 mM NADPH were incubated with different concentrations of oxadiazole-2-oxides (2, 4, 6, 10, 20 μM) for 15 min at room temperature. Then, potassium phosphate buffer (pH 7.4) containing 10 mM EDTA, 100 μM NADPH, and 3 mM DTNB was added to start the reaction. The increase of absorbance at 412 nm was monitored during the first 2 min. All assays were done in triplicate.
50 nM SjTGR and 1 mM NADPH were incubated with different concentrations of oxadiazole-2-oxides (2, 4, 6, 10, 20 μM) for 15 min at room temperature. Then, potassium phosphate buffer (pH 7.4) containing 10 mM EDTA, 100 μM NADPH, 3 mM DTNB was added to start the reaction. The increase in absorbance at 412 nm was monitored during the first 2 min. All assays were done in triplicate. Results shown are the mean ± SD (n = 3)

[2] = Cytotoxicity assay on Hela cells (MTT); assay type: cell-based; details: human
Protocol: Cytotoxicity assays were performed using Hela cells. Cells in the exponential growth phase were collected by centrifugation and a concentration of 4–5 × 10^4/mL was created. 100 μL of the cell suspension was added to each well of a 96-well plate and cultured overnight at 37 °C in a humid atmosphere with 5 % CO2. Oxadiazole-2-oxides (at 10, 20, 40, 80 and 160 μM) were added. Each concentration was assayed in triplicate, and control wells (no cells and no drugs) were assayed at the same time. The “no cell” control wells only contained RPMI 1640 medium, MTT, DMSO, and oxadiazole-2-oxides. The “no drug” control wells contained the Hela cells, RPMI 1640 medium, MTT and DMSO. The cells were cultured for 48 h at 37 °C in a humid atmosphere with 5 % CO2. Then, 20 μL of 5 mg/mL MTT was added to each well and the culture conditions were maintained for 4 h. After this point, the medium was removed and 150 μL DMSO was added into each well to dissolve any crystallisation. The value of absorbance at 570 nm of each well was measured (at 570 nm) with a microplate reader to assess the toxic effect of the oxadiazole-2-oxides on the vertebrate cells.

[3] = test system: adult S. japonicum in mice; test: Treatment of infected mice at adult worm stage; assay type: in vivo, Schistosoma japonicum (ICR mice)
Protocol: as §1

adult S. japonicum = test: microbe, parasite or virus in culture; assay type: cell-based; details: adult worms
Excerpt: ICR mice (20–22 g), were obtained from the Shanghai Sub-Center of Experimental Animals, Chinese Academy of Sciences. They were maintained at the Department of Experimental Animals, Jiangsu Institute of Parasitic Diseases. To infect each mouse, its abdominal skin was exposed to 50 S. japonica cercariae. All of the mice were executed to collect S. japonica adult worms, through portal vein perfusion, 35 days post-infection. The adult S. japonica collected were washed with RPMI 1640 medium and then kept in RPMI 1640 medium (pH 7.5) with HEPES 20 mM, penicillin (100 IU/mL), streptomycin ([…]) and 10 % fetal bovine serum. Then, two pairs of adult worms were transferred into each well of a 24-well culture plate, with 2 mL of the same medium. The worms were cultured at 37 °C in a humid atmosphere with 5 % CO2.
Adult worms were cultured in a 24-well culture plate for 30–60 min at 37 °C, in a humid atmosphere with 5 % CO2. Then, oxadiazole-2-oxides at different concentrations (10, 25, 50, 100 μM) were added. Equal volumes of RPMI 1640 or DMSO were applied as negative controls, while PZQ was applied as a positive control. The adult worm mobility and parasite survival rates were monitored using an inverted phase contrast microscope, at 24, 48 and 72 h. Parasite death was defined as there being no motor activity during 2 min of continuous observation, and morphological and tegumental alterations. All assays were repeated three times.
^b Data collected by visual examination of worm movement and shape; n.e. […] The data presented are the average of three independent experiments.

[4] = Schistosoma japonicum, 24 h, read-out: Killing activity 24hr
[5] = Schistosoma japonicum, 48 h, read-out: Killing activity 48hr
[6] = Schistosoma japonicum, 72 h, read-out: Killing activity 72hr
[7] = mice, 10 mg/kg i.p. daily for 5 days from day 35 post-infection, sacrificed day 42

## C[C@@H]1CC[C@H]2[C@@H](C)C(=O)O[C@@H]3O[C@@]4(C)CC[C@@H]1[C@]32OO4 [AS, artemisinin, reference compound]
[1]; sacrificed day 42
  Number of eggs per gram of liver (Mean ± SD): 2,932.2 ± 1,149.3
  Number of worms (Mean ± SD): 2.3 ± 1.0
[1]; versus control
  Egg reduction rate: 63.5 (P < 0.01^*) %
[1]; versus control, 10 mg/kg
  Worm reduction rate: 78.5 (P < 0.01^*) %
Juvenile S. japonicum; [4]
  killing at 2 µM: 16.2%
  killing at 5 µM: 34.1%
Juvenile S. japonicum; [5]
  killing at 2 µM: 24.3%
  killing at 5 µM: 36.4%
Juvenile S. japonicum; [6]
  killing at 2 µM: 32.4%
  killing at 5 µM: 40.9%
Juvenile S. japonicum; Schistosoma japonicum, 50 μM, 24 h, read-out: Killing activity 24hr
  killing at 50 µM: 51.3%
Juvenile S. japonicum; Schistosoma japonicum, 50 μM, 24 h, read-out: Mortality of juvenile worms
  mortality at 50 µM: 51.3 ± 5.1%
Juvenile S. japonicum; Schistosoma japonicum, 50 μM, 48 h, read-out: Killing activity 48hr
  killing at 50 µM: 66.7%
Juvenile S. japonicum; Schistosoma japonicum, 50 μM, 72 h, read-out: Killing activity 72hr
  killing at 50 µM: 76.9%
Juvenile S. japonicum; 10 μM, 24 h
  Killing activity 24hr: 47.6%D
Juvenile S. japonicum; 10 μM, 48 h
  Killing activity 48hr: 66.7%D
Juvenile S. japonicum; 10 μM, 72 h
  Killing activity 72hr: 71.4%D
Recombinant SjTGR
  IC50: > 20 µM

## O=C(C1CCCCC1)N1CC(=O)N2CCc3ccccc3C2C1 (centres unmarked) [PZQ, praziquantel, reference compound]
[2]
  viability at 72 h, 80 µM: 76%
[3]; mice treated at adult worm stage (data not shown)
  Reduction in the female worms: 60.5%
[3]; [7]
  Number of eggs per gram of liver (Mean ± SD): 3721.5 ± 1600.6
  Number of worms (Mean ± SD): 3.3 ± 1.7
[3]; mice, 10 mg/kg i.p. daily for 5 days from day 35 post-infection, versus control
  Egg reduction rate: 53.7 (P < 0.01^*) %
[3]; mice, 10 mg/kg i.p. daily for 5 days from day 35 post-infection, versus control, 10 mg/kg
  Worm reduction rate: 72.3 (P < 0.01^*) %
Recombinant SjTGR
  IC50: > 20 µM
Adult S. japonicum; Schistosoma japonicum, 25 μM, 24 h, read-out: Killing activity 24hr
  killing at 25 µM: 25%
Adult S. japonicum; Schistosoma japonicum, 25 μM, 24 h, read-out: Mortality of adult worms
  mortality at 25 µM: 25 ± 7.8%
Adult S. japonicum; Schistosoma japonicum, 25 μM, 48 h, read-out: Killing activity 48hr
  killing at 25 µM: 25%
Adult S. japonicum; Schistosoma japonicum, 25 μM, 72 h, read-out: Killing activity 72hr
  killing at 25 µM: 62.5%
Adult S. japonicum; [4]
  killing at 50 µM: 25%
  killing at 100 µM: 37.5%
Adult S. japonicum; [5]
  killing at 50 µM: 37.5%
  killing at 100 µM: 50%
Adult S. japonicum; [6]
  killing at 50 µM: 62.5%
  killing at 100 µM: 87.5%
Adult S. japonicum; 10 μM, 24 h
  Killing activity 24hr: 25.0%D
Adult S. japonicum; 10 μM, 48 h
  Killing activity 48hr: 25.0%D
Adult S. japonicum; 10 μM, 72 h
  Killing activity 72hr: 37.5%D
